We go through 33 compounds from BindingDB's records for patent US20250313563 (The Broad Institute, 2025).

Experiment [1] has as its target Glycogen synthase kinase-3 alpha (Homo sapiens, UniProt P49840). In words: TR-FRET Assay. In outline:
(§1)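 30 min preinc w/ cpd in assay buffer → kinase rxn → EDTA quench → add detection mix (40 nM SA-d2, 2 nM Tb-pSer641 Ab) → TR-FRET read.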

Experiment [2] concerns the target Glycogen synthase kinase-3 beta (Homo sapiens, UniProt P49841). In words: TR-FRET Assay. An outline of the steps: as §1

SMILES strings stand for the structures. Several values for one entry are separate records, joined by “and”; a condition that tells them apart may be missing. Identical values can stand only once.

Sequence of Glycogen synthase kinase-3 beta (P49841 whole entry): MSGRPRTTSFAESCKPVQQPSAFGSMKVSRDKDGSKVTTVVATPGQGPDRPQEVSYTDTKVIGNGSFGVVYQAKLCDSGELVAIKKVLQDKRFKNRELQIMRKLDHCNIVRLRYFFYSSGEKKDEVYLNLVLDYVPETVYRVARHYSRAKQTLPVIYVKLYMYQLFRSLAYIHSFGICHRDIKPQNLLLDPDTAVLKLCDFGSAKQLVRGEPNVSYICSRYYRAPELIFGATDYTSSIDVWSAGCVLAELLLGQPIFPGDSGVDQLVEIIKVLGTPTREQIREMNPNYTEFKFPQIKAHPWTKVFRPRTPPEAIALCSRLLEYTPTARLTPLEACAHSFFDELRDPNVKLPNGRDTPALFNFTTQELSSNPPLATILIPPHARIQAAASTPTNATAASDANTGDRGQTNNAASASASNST
Sequence of Glycogen synthase kinase-3 alpha (P49840 whole entry): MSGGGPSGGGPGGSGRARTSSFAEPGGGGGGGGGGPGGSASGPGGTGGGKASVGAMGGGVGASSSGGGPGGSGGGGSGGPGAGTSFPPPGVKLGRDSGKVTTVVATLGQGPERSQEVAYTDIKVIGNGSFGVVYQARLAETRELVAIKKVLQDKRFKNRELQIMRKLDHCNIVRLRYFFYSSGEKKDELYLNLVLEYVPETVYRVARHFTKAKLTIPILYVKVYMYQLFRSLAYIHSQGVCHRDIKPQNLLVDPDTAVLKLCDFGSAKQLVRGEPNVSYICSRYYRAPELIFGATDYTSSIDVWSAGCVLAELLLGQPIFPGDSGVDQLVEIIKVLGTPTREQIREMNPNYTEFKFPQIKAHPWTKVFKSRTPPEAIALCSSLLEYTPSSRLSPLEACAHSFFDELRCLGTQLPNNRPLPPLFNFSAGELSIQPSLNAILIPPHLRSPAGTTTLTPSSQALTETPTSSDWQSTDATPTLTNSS

`CCC1(c2cccc(-c3ccncc3F)c2)C2=C(CC(C)(C)CC2=O)NC2N=NC(C(F)(F)F)=C21` (stereo unspecified) [US20250313563, Compound 945528]: the IC50 was under 100 nM in experiment [1]; < 100 nM and 100 to 1000 nM in experiment [2].

As for `CC1(C)CC(=O)C2=C(C1)NC1=C(CN=N1)[C@@]21CCOC2(CCC2)C1` [US20250313563, Compound 897755], the IC50 in experiment [1] and in experiment [2] was 1000 to 5000 nM in each case.

Consider `CC[C@]1(c2cccc(C(F)(F)F)c2)C2=CN=NC2NC2=C1C(=O)N(c1cnc(OC)nc1)[C@@H](C)C2` (stereo partly specified) [US20250313563, Compound 949352], for which the IC50 in experiment [1] lay in the range of 100 to 1000 nM; in experiment [2], 1000 to 5000 nM.

On to `CC[C@]1(c2cccc(-c3ccnn3C)c2)C2=CN=NC2NC2=C1C(=O)N[C@]1(CCCOC1)C2` (stereo partly specified) [US20250313563, Compound 948365], for which the IC50 in experiment [1] is 1000 to 5000 nM; in experiment [2], over 5000 nM.

With `CC1CC(C(=O)N2CC3(C2)CC2(CO3)C3=C(N=NC3)NC3=C2C(=O)CC(C)(C)C3)C1` (stereo unspecified) [US20250313563, Compound 947266], the IC50 in experiment [1] and in experiment [2] was under 100 nM in each case.

Turning to `CCC1(c2cccc(C(F)(F)F)c2)C2=CN=NC2NC2=C1C(=O)N(c1ccsc1)CC2` (stereo unspecified) [US20250313563, Compound 950776], the IC50 was under 100 nM in experiment [1] and 100 to 1000 nM in experiment [2].

For `CCC1(c2cccc(-c3ccnn3CCC(C)C)c2)C2=CN=NC2NC2=C1C(=O)CC(C)(C)C2` (stereo unspecified) [US20250313563, Compound 929401], the IC50 in experiment [1] and in experiment [2] was under 100 nM throughout.

As to `CC[C@@]1(c2cccc(-c3cc(C4CCCC4)nn3C)c2)C2=CN=NC2NC2=C1C(=O)NC(C)(C)C2` (stereo partly specified) [US20250313563, Compound 952023], the half-inhibitory concentration (IC50) in experiment [1] was 100 to 1000 nM; in experiment [2], 1000 to 5000 nM.

Regarding `CCC1(c2cccc(-c3cc(C)ncc3F)c2)C2=CN=NC2NC2=C1C(=O)CC(C)(C)C2` (stereo unspecified) [US20250313563, Compound 917132], the concentration for half-maximal inhibition (IC50) in experiment [1] and in experiment [2] was under 100 nM each time.

On to `CC1(C)CC(=O)C2=C(C1)NC1=C(CN=N1)C21CCN(S(=O)(=O)c2ccc(Cl)cc2)CC1` [US20250313563, Compound 945661], for which the IC50 in experiment [1] and in experiment [2] was under 100 nM throughout.

Regarding `Cc1cccc(S(=O)(=O)N2CC[C@@]3(C2)C2=C(N=NC2)NC2=C3C(=O)CC(C)(C)C2)c1` [US20250313563, Compound 951863], the concentration for half-maximal inhibition (IC50) in experiment [1] and in experiment [2] was 100 to 1000 nM each time.

Turning to `CC(C)(C)CC1=C2C(N=N1)NC1=C(C(=O)CC(C)(C)C1)[C@@]21CCc2ccc(F)cc21` (stereo partly specified) [US20250313563, Compound 789505], the IC50 in experiment [1] is 100 to 1000 nM; in experiment [2], under 100 nM.

Regarding `CC[C@@]1(c2cccc(-c3cnn4c3CCCC4)c2)C2=C(CC(C)(C)CC2=O)NC2N=NC(C)=C21` (stereo partly specified) [US20250313563, Compound 913033], the values for the IC50 in experiment [1] and in experiment [2] were 100 to 1000 nM and 1000 to 5000 nM, respectively.

Consider `CC[C@]1(c2cccc(-c3ccnc(C)c3)c2)C2=C(N=NC2)NC2=C1C(=O)[C@H]1CC[C@@H]2C1` [US20250313563, Compound 943917], for which the IC50 in experiment [1] is under 100 nM; in experiment [2] it was 100 to 1000 nM.

As to `CC[C@@]1(c2cccc(-c3ccnn3C)c2)C2=CN=NC2NC2=C1C(=O)N[C@]1(CCCOC1)C2` (stereo partly specified) [US20250313563, Compound 948529], the IC50 in experiment [1] is < 100 nM and 100 to 1000 nM; in experiment [2], 100 to 1000 nM and 1000 to 5000 nM.

In the case of `CCC1(c2cccc(C(F)(F)F)c2)C2=C(CC(C)(C)CC2=O)NC2N=NC(Br)=C21` (stereo unspecified) [US20250313563, Compound 802358], the IC50 in experiment [1] and in experiment [2] was under 100 nM in each case.

Turning to `CC1(C)CC(=O)C2=C(C1)NC1=C(CN=N1)C21CN(c2ccccc2)C1` [US20250313563, Compound 948298], the IC50 in experiment [1] and in experiment [2] was under 100 nM throughout.

Regarding `CC[C@@]1(c2ccccc2)C2=CN=NC2NC2=C1C(=O)[C@@H](F)C(C)(C)C2` (stereo partly specified) [US20250313563, Compound 826767], the IC50 in experiment [1] and in experiment [2] was over 5000 nM each time.

For the compound `CC[C@@]1(c2cccc(C(F)(F)F)c2)C2=CN=NC2NC2=C1C(=O)N(c1ccc(C)cc1)CC2` (stereo partly specified) [US20250313563, Compound 949119], the IC50 in experiment [1] was 1000 to 5000 nM; in experiment [2], over 5000 nM.

Consider `CCC1(c2cccc(N3CCCC3)c2)C2=C(CC(C)(C)NC2=O)NC2N=NC(C)=C21` (stereo unspecified) [US20250313563, Compound 947673], for which the values for the IC50 in experiment [1] and in experiment [2] were under 100 nM and 100 to 1000 nM, respectively.

With `C[C@@H]1C[C@H](C)C[C@]2(C1)C1=C(N=NC1)NC1=C2C(=O)CC(C)(C)C1` [US20250313563, Compound 884113], the figures for the IC50 in experiment [1] and in experiment [2] were 100 to 1000 nM and 1000 to 5000 nM, respectively.

On to `COc1cc(S(=O)(=O)N2CCC3(CC2)C2=C(N=NC2)NC2=C3C(=O)CC(C)(C)C2)ccc1Cl` [US20250313563, Compound 945669], for which the IC50 in experiment [1] and in experiment [2] was under 100 nM throughout.

Regarding `CC[C@@]1(c2cccc(-c3ccncc3F)c2)C2=C(CC(C)(C)NC2=O)NC2N=NC(Cl)=C21` (stereo partly specified) [US20250313563, Compound 949757], the IC50 in experiment [1] was < 100 nM and 100 to 1000 nM; in experiment [2], < 100 nM and 1000 to 5000 nM.

`CCC1(c2cccc(S(=O)(=O)CC3CC3)c2)C2=CN=NC2NC2=C1C(=O)CC(C)(C)C2` (stereo unspecified) [US20250313563, Compound 913257]: the IC50 in experiment [1] and in experiment [2] was under 100 nM in each case.

As to `CCC1(c2ccccc2)C2=C(N=NC2)NC2=C1C(=O)C(C)(C)CC2` (stereo unspecified) [US20250313563, Compound 835310], the IC50 lay in the range of 100 to 1000 nM in experiment [1] and 1000 to 5000 nM in experiment [2].

In the case of `CCC1(c2cccc(-c3cnc(C)n3C)c2)C2=CN=NC2NC2=C1C(=O)CC(C)(C)C2` (stereo unspecified) [US20250313563, Compound 943531], the IC50 in experiment [1] is < 100 nM and 100 to 1000 nM; in experiment [2], 100 to 1000 nM and > 5000 nM.

Take `CCC1(c2cccc(-c3cnn(C)c3C)c2)C2=C(CC(C)(C)CC2=O)NC2N=NC(C)=C21` (stereo unspecified) [US20250313563, Compound 883993]: the IC50 in experiment [1] and in experiment [2] was under 100 nM in each case.

As for `CC1(C)CC2=C(C(=O)[C@@H]1F)[C@]1(CC[C@H](C(F)(F)F)CC1)C1=CN=NC1N2` (stereo partly specified) [US20250313563, Compound 918283], the 50% inhibitory concentration (IC50) in experiment [1] and in experiment [2] was under 100 nM in each case.

As to `CC[C@]1(c2cccc(-c3ccnc(C)c3)c2)C2=CN=NC2NC2=C1C(=O)NC(C)(C)C2` (stereo partly specified) [US20250313563, Compound 927325], the IC50 in experiment [1] and in experiment [2] was 100 to 1000 nM each time.

For the compound `CCC1(c2cccc(N(CCOC)C(C)=O)c2)C2=CN=NC2NC2=C1C(=O)CC(C)(C)C2` (stereo unspecified) [US20250313563, Compound 893306], the IC50 in experiment [1] and in experiment [2] was under 100 nM throughout.

Turning to `CC[C@@]1(c2cccc(-c3ccncc3)c2)C2=CN=NC2NC2=C1C(=O)CC(C)(C)[C@H]2F` (stereo partly specified) [US20250313563, Compound 959343], the IC50 in experiment [1] was < 100 nM and 100 to 1000 nM; in experiment [2], < 100 nM and 1000 to 5000 nM.

For the compound `CC[C@@]1(c2cccc(N(C)c3cc(C)cc(C)n3)c2)C2=CN=NC2NC2=C1C(=O)CC(C)(C)C2` (stereo partly specified) [US20250313563, Compound 945610], the values for the IC50 in experiment [1] and in experiment [2] were under 100 nM and 100 to 1000 nM, respectively.

As for `CC[C@]1(c2cccc(-c3cnn4c3CC(C)(C)CC4)c2)C2=CN=NC2NC2=C1C(=O)NC(C)(C)C2` (stereo partly specified) [US20250313563, Compound 949265], the results for the IC50 in experiment [1] and in experiment [2] were 1000 to 5000 nM and over 5000 nM, respectively.
